Test results published in paper PMC4994268, “4-aroylpiperidines and 4-(α-hydroxyphenyl)piperidines as selective sigma-1 receptor ligands: synthesis, preliminary pharmacological evaluation and computational studies” (Chemistry Central Journal, 2016).
Structures can show the parent of a compound that is named as a salt.

What was measured:
σ2 receptor = target: T1, σ2 receptor (Rattus norvegicus, UniProt Q5U3Y7); test: Sigma receptor binding, σ2 sites, [3H]DTG competition with σ1 sites masked by (+)-pentazocine, rat liver membrane homogenates; conditions: HCl salts tested
T1 construct: Rat liver membrane homogenates (~300 μg protein) were diluted with 50 mM Tris–HCl buffer; from tissue; host or cells: rat liver membrane homogenates
T1 sequence (Q5U3Y7 1-176): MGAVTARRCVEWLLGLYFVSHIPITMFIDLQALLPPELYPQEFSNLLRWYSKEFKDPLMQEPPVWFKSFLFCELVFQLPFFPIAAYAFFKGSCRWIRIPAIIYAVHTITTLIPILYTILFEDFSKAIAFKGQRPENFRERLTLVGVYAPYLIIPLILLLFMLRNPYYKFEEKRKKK
Description: (§1) These experiments were performed as described by Jinbin et al. with some modification. Different concentrations of test samples were achieved by diluting stock solutions with a solution containing 50 mM Tris–HCl, 150 mM NaCl and 100 mM EDTA at pH 7.4. Rat liver membrane homogenates (~300 μg protein) were diluted with 50 mM Tris–HCl buffer, pH 8.0 and incubated in a total volume of 150 μL with the radioligand at 25 °C in 96 well plates. The incubation time was 60 min for test compounds and 120 min for [^3H] DTG and [^3H] (+)-pentazocine.
It is worth mentioning that, this was done one at a time. The final concentration of the radioligand in each assay was ~1 nM for [^3H] test compounds and ~5 nM for [^3H] […]

σ1 receptor [1] = target: T2, σ1 receptor (Rattus norvegicus, UniProt Q9R0C9); test: Sigma receptor binding, σ1 sites, [3H](+)-pentazocine competition in rat liver membrane homogenates; conditions: for Ki: HCl salts tested, rat liver membrane homogenates
T2 construct: Rat liver membrane homogenates (~300 μg protein) were diluted with 50 mM Tris–HCl buffer; from tissue; host or cells: rat liver membrane homogenates
T2 sequence (Q9R0C9 whole entry): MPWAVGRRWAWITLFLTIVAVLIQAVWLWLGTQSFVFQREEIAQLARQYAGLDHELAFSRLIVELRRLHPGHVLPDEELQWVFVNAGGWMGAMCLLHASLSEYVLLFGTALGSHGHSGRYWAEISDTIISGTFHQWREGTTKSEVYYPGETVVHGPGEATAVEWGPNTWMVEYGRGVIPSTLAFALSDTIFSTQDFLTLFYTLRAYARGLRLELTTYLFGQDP
Description: as §1
(§2) It is worth mentioning that, this was done one at a time. The final concentration of the radioligand in each assay was ~1 nM for [^3H] test compounds and ~5 nM for [^3H]
(§3) The reaction was started by adding 0.2 mL of the membrane preparation to the 50 mM Tris–HCl (pH 8.0) buffer containing ^3H-labeled ligand with a final concentration of 5 nM and cold ligand ranging from 0.01 to 0.1 mM in a final volume of 1.0 mL. Incubations were carried out at […] in the binding study with [^3H] […] DTG. Inhibitor concentrations ranging from 0.1 nM to 10 μM were added to acquire the inhibition curves. After the reaction was completed, the samples were harvested, washed three times, and the bound radioactivity counted and analyzed.

σ1 receptor [2] = test: Sigma receptor binding, σ1 sites, [3H](+)-pentazocine competition in rat liver membrane homogenates; conditions: ratio of Ki σ2 to Ki σ1
Description: as §1, §2, §3

σ1 receptor [3] = conditions: reference ligands in Table 1; cited from earlier work

Ki (σ2 receptor) [nM]	Ki (σ1 receptor [1]) [nM]	melting point [°C]	increase in σ1 receptor affinity on reduction of the carbonyl compound to the corresponding alcohol (σ1 receptor [1]; alcohol 8 versus ketone 7)	Selectivity ratio (Ki σ2/σ1) (σ1 receptor [2])	decrease in σ1 binding affinity on reduction of the carbonyl to the corresponding alcohol (σ1 receptor [1]; alcohol 8 versus ketone 7)	Compound	Ki (σ1 receptor [3]) [nM]
> 854	1.41 ± 0.22	–	twofold	> 606	–	OC(c1ccc(F)cc1)C1CCN(Cc2ccc(F)cc2)CC1 (stereo not drawn) [Compound 8a, (4-fluorophenyl)({1-[(4-fluorophenyl)methyl]piperidin-4-yl})methanol]	–
> 854	2.95 ± 0.57	–	–	> 289	–	Fc1ccc(C(NCc2cccc(Br)c2)C2CCN(Cc3ccc(Br)cc3)CC2)cc1 (stereo not drawn) [Compound 9e, [(3-bromophenyl)methyl]({1-[(4-bromophenyl)methyl]piperidin-4-yl}(4-fluorophenyl)methyl)amine]	–
> 854	527 ± 69	–	–	2	–	O=[N+]([O-])c1ccccc1CN1CCC(C(O)c2ccc(F)cc2)CC1 (stereo not drawn) [Compound 8d, (4-fluorophenyl)({1-[(2-nitrophenyl)methyl]piperidin-4-yl})methanol]	–
> 854	2.49 ± 0.24	–	twofold	> 343	–	OC(c1ccc(F)cc1)C1CCN(Cc2ccc(Cl)cc2)CC1 (stereo not drawn) [Compound 8c, {1-[(4-chlorophenyl)methyl]piperidin-4-yl}(4-fluorophenyl)methanol]	–
> 854	5.22 ± 0.3	–	–	> 164	fivefold	OC(c1ccc(F)cc1)C1CCN(Cc2ccc(Br)cc2)CC1 (stereo not drawn) [Compound 8e, {1-[(4-bromophenyl)methyl]piperidin-4-yl}(4-fluorophenyl)methanol]	–
> 854	> 434	–	–	–	–	O=[N+]([O-])c1ccccc1CN1CCC(C(NCc2cccc(Br)c2)c2ccc(F)cc2)CC1 (stereo not drawn) [Compound 9d, [(3-bromophenyl)methyl][(4-fluorophenyl)({1-[(2-nitrophenyl)methyl]piperidin-4-yl})methyl]amine]	–
> 854	1.45 ± 0.4	–	11 fold	> 589	–	Cc1ccc(CN2CCC(C(O)c3ccc(F)cc3)CC2)cc1 (stereo not drawn) [Compound 8f, (4-fluorophenyl)({1-[(4-methylphenyl)methyl]piperidin-4-yl})methanol]	–
> 854	> 434	–	–	–	–	OC(c1ccc(F)cc1)C1CCN(Cc2ccc(Cl)c(Cl)c2)CC1 (stereo not drawn) [Compound 8b, {1-[(3,4-dichlorophenyl)methyl]piperidin-4-yl}(4-fluorophenyl)methanol]	–

More lines, now with the values behind:

Compound	Ki (σ2 receptor) [nM]	Ki (σ1 receptor [1]) [nM]	melting point [°C]	increase in σ1 receptor affinity on reduction of the carbonyl compound to the corresponding alcohol (σ1 receptor [1]; alcohol 8 versus ketone 7)	Selectivity ratio (Ki σ2/σ1) (σ1 receptor [2])	decrease in σ1 binding affinity on reduction of the carbonyl to the corresponding alcohol (σ1 receptor [1]; alcohol 8 versus ketone 7)	Ki (σ1 receptor [3]) [nM]
O=C(c1ccc(F)cc1)C1CCN(Cc2ccccc2[N+](=O)[O-])CC1 [Compound 7d, 4-(4-fluorobenzoyl)-1-[(2-nitrophenyl)methyl]piperidine]	> 854	> 434	–	–	–	–	–
O=C(c1ccc(F)cc1)C1CCN(Cc2ccccc2[N+](=O)[O-])CC1 (as salt: HCl) [Compound 7d, 4-(4-fluorobenzoyl)-1-[(2-nitrophenyl)methyl]piperidine]	–	–	95 to 97	–	–	–	–
O=C(c1ccc(F)cc1)C1CCN(Cc2ccc(Cl)cc2)CC1 [Compound 7c, 1-[(4-chlorophenyl)methyl]-4-(4-fluorobenzoyl)piperidine]	554 ± 34.2	5.98 ± 0.41	–	–	93	–	–
O=C(c1ccc(F)cc1)C1CCN(Cc2ccc(Cl)c(Cl)c2)CC1 [Compound 7b, 1-[(3,4-dichlorophenyl)methyl]-4-(4-fluorobenzoyl)piperidine]	> 854	> 434	–	–	–	–	–
Cc1ccc(CN2CCC(C(=O)c3ccc(F)cc3)CC2)cc1 [Compound 7f, 4-(4-fluorobenzoyl)-1-[(4-methylphenyl)methyl]piperidine]	151 ± 7.79	11.6 ± 0.26	–	–	13	–	–
Cc1ccc(CN2CCC(C(=O)c3ccc(F)cc3)CC2)cc1 (as salt: HCl) [Compound 7f, 4-(4-fluorobenzoyl)-1-[(4-methylphenyl)methyl]piperidine]	–	–	108 to 110	–	–	–	–
O=C(c1ccc(F)cc1)C1CCN(Cc2ccc(Br)cc2)CC1 [Compound 7e, 1-[(4-bromophenyl)methyl]-4-(4-fluorobenzoyl)piperidine]	> 854	1.4 ± 0.5	–	–	> 610	–	–
O=C(c1ccc(F)cc1)C1CCN(Cc2ccc(F)cc2)CC1 [Compound 7a, 4-(4-fluorobenzoyl)-1-[(4-fluorophenyl)methyl]piperidine]	222 ± 8	2.96 ± 0.5	–	–	75	–	–
c1ccc(CN2CCC3(CCc4ccccc4S3)CC2)cc1 [Spipethiane, 1′-Benzyl-3,4-dihydrospiro[2H-1-benzothiopyran-2,4′-piperidine]]	–	–	–	–	–	–	0.5
